Results reported in patent US20110263564A1, “PYRIDINE, BICYCLIC PYRIDINE AND RELATED ANALOGS AS SIRTUIN MODULATORS” (Sirtris Pharmaceuticals, Inc., priority 2008, published 2011).

Biological target: T1, SIRT1 (Homo sapiens, UniProt Q96EB6)
T1 sequence (Q96EB6 1-747): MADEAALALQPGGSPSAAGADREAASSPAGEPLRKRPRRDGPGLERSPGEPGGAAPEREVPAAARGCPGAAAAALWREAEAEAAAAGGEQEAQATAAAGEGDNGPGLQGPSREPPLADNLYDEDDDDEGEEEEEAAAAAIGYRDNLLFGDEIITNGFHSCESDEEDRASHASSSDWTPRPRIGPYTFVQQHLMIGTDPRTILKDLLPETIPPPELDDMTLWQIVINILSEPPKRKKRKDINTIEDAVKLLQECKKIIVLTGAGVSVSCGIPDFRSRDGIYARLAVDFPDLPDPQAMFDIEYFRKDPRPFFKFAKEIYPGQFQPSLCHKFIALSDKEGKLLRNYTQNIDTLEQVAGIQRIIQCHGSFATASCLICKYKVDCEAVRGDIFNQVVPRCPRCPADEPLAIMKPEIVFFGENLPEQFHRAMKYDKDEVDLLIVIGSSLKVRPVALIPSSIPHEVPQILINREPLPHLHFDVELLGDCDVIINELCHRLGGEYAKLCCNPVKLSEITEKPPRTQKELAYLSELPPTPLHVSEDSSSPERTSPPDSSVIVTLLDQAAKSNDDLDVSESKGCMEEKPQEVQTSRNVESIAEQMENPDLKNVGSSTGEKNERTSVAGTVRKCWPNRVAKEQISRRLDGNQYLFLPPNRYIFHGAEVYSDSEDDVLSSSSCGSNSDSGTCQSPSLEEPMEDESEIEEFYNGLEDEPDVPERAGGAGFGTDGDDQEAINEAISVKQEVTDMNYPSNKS
Test: Mass spectrometry based assay of SIRT1 activity (deacetylation of a p53-based acetylated peptide)
Type: biochemical
Settings: 10 nM SIRT1, 0.5 μM peptide substrate, 120 μM βNAD+, 25 minutes at 25° C.; for Emax: read-out: % FOLD ACT. (percent maximum fold activation)
Text: A mass spectrometry based assay was used to identify modulators of SIRT1 activity. The mass spectrometry based assay utilizes a peptide having 20 amino acid residues as follows: Ac-EE-K(biotin)-GQSTSSHSK(Ac)NleSTEG-K(5TMR)-EE-NH2 (SEQ ID NO: 1) wherein K(Ac) is an acetylated lysine residue and Nle is a norleucine. The peptide is labeled with the fluorophore 5TMR (excitation 540 nm/emission 580 nm) at the C-terminus. The sequence of the peptide substrate is based on p53 with several modifications. In addition, the methionine residue naturally present in the sequence was replaced with the norleucine because the methionine may be susceptible to oxidation during synthesis and purification.
The mass spectrometry assay is conducted as follows: 0.5 μM peptide substrate and 120 μM βNAD^+ is incubated with 10 nM SIRT1 for 25 minutes at 25° C. in a reaction buffer (50 mM Tris-acetate pH 8, 137 mM NaCl, 2.7 mM KCl, 1 mM MgCl2, 5 mM DTT, 0.05% BSA). Test compounds may be added to the reaction as described above. […] After the 25 minute incubation with SIRT1, 10 μL of 10% formic acid is added to stop the reaction. Reactions are sealed and frozen for later mass spec analysis. Determination of the mass of the substrate peptide allows for precise determination of the degree of acetylation (i.e. starting material) as compared to deacetylated peptide (product).
A control for inhibition of sirtuin activity is conducted by adding 1 μL of 500 mM nicotinamide as a negative control at the start of the reaction (e.g., permits determination of maximum sirtuin inhibition). A control for activation of sirtuin activity is conducted using 10 nM of sirtuin protein, with 1 μL of DMSO in place of compound, to determine the amount of deacetylation of the substrate at a given timepoint within the linear range of the assay. This timepoint is the same as that used for test compounds and, within the linear range, the endpoint represents a change in velocity.
For the above assay, SIRT1 protein was expressed and purified as follows. […] The protein was expressed by induction with 1 mM IPTG as an N-terminal His-tag fusion protein at 18° C. overnight and harvested at 30,000×g. Cells were lysed with lysozyme in lysis buffer (50 mM Tris-HCl, 2 mM Tris[2-carboxyethyl]phosphine (TCEP), 10 μM ZnCl2, 200 mM NaCl) and further treated with sonication for 10 min for complete lysis. The protein was purified over a Ni-NTA column (Amersham) and fractions containing pure protein were pooled, concentrated and run over a sizing column (Sephadex S200 26/60 global). The peak containing soluble protein was collected and run on an Ion-exchange column (MonoQ). Gradient elution (200 mM-500 mM NaCl) yielded pure protein. This protein was concentrated and dialyzed against dialysis buffer (20 mM Tris-HCl, 2 mM TCEP) overnight. The protein was aliquoted and frozen at −80° C. until further use.
Sirtuin modulating compounds that activated SIRT1 were identified using the assay described above and are shown below in Table 1 for compounds of Formula (III)). The EC1.5 values represent the concentration of test compounds that result in 150% activation of SIRT1. The EC1.5 values for the activating compounds in Table 1 are represented by A (EC1.5<10.0 μM), B (EC1.5 10-25 μM), C (EC1.5>25 μM). The percent maximum fold activation is represented by A (Fold activation>200%) or B (Fold Activation<200%); “NT” means not tested; “ND” mean not determinable.

SMILES | EC1.5 (concentration of test compound that results in 150% activation of SIRT1) | Emax [%]
O=C(NC1CCCc2ccc(-c3cccc(C(F)(F)F)c3)nc21)c1cccc(N2CCOCC2)n1 (stereo not drawn) [Compound 236] | A (EC1.5<10.0 μM) | > 200
O=C(NC1CCCc2ccc(-c3cccc(C(F)(F)F)c3)nc21)c1cccc(CN2CCCC2)c1 (stereo not drawn) [Compound 237] | B (EC1.5 10-25 μM) | < 200
O=C(NC1CCCc2ccc(-c3cccc(C(F)(F)F)c3)nc21)c1ccnc(CN2CCOCC2)c1 (stereo not drawn) [Compound 238] | C (EC1.5>25 μM) | 
O=C(NC1CCCc2ccc(-c3cccc(C(F)(F)F)c3)nc21)c1ccnc(CN2CCCC2)c1 (stereo not drawn) [Compound 239] | C (EC1.5>25 μM) | 
O=C(NC1CCCc2ccc(-c3cccc(C(F)(F)F)c3)nc21)c1ccc(CN2CCOCC2)nc1 (stereo not drawn) [Compound 241] | C (EC1.5>25 μM) | 
O=C(NC1CCCc2ccc(-c3cccc(C(F)(F)F)c3)nc21)c1cccc(C2CCNC2)c1 (stereo not drawn) [Compound 242] | A (EC1.5<10.0 μM) | > 200
O=C(NC1CCCc2ccc(-c3cccc(C(F)(F)F)c3)nc21)c1cccnc1OCC(O)CO (stereo not drawn) [Compound 243] | C (EC1.5>25 μM) | 
O=C(NC1CCCc2ccc(-c3cccc(C(F)(F)F)c3)nc21)c1ccnc(OCC(O)CO)c1 (stereo not drawn) [Compound 244] | A (EC1.5<10.0 μM) | > 200
O=C(NC1CCCc2ccc(-c3cccnc3)nc21)c1cnccn1 (stereo not drawn) [Compound 246] | C (EC1.5>25 μM) | 
O=C(NC1CCCc2ccc(-c3ccncc3)nc21)c1cnccn1 (stereo not drawn) [Compound 247] | C (EC1.5>25 μM) | 
Cc1ccc(-c2ccc3c(n2)C(NC(=O)c2cnccn2)CCC3)cn1 (stereo not drawn) [Compound 248] | C (EC1.5>25 μM) | 
Cc1cc(-c2ccc3c(n2)C(NC(=O)c2cnccn2)CCC3)ccn1 (stereo not drawn) [Compound 249] | C (EC1.5>25 μM) | 
CS(=O)(=O)c1cccc(-c2ccc3c(n2)C(NC(=O)c2cnccn2)CCC3)c1 (stereo not drawn) [Compound 250] | C (EC1.5>25 μM) | 
O=C(NC1CCCc2ccc(-c3cc(C(F)(F)F)ccc3F)nc21)c1cnccn1 (stereo not drawn) [Compound 251] | A (EC1.5<10.0 μM) | > 200
O=C(NC1CCCc2ccc(-c3cccc(OC(F)(F)F)c3)nc21)c1cnccn1 (stereo not drawn) [Compound 252] | B (EC1.5 10-25 μM) | > 200
O=C(NC1CCCc2ccc(-c3ccccc3C(F)(F)F)nc21)c1cnccn1 (stereo not drawn) [Compound 253] | C (EC1.5>25 μM) | 
O=C(NC1CCCc2ccc(-c3ccc(F)c(C(F)(F)F)c3)nc21)c1cnccn1 (stereo not drawn) [Compound 254] | A (EC1.5<10.0 μM) | < 200
O=C(NC1CCCc2ccc(-c3cccc(C(F)(F)F)c3F)nc21)c1cnccn1 (stereo not drawn) [Compound 256] | C (EC1.5>25 μM) | 
O=C(NC1CCCc2ccc(-c3cccnc3O)nc21)c1cnccn1 (stereo not drawn) [Compound 257] | C (EC1.5>25 μM) | 

SMILES | EC1.5 (concentration of test compound that results in 150% activation of SIRT1) | Emax [%]
CC(C)c1ccccc1-c1ccc2c(n1)C(NC(=O)c1cnccn1)CCC2 (stereo not drawn) [Compound 258] | C (EC1.5>25 μM) | 
O=C(NC1CCCc2ccc(-c3ccc(N4CCCC4)cc3)nc21)c1cnccn1 (stereo not drawn) [Compound 259] | C (EC1.5>25 μM) | 
O=C(NC1CCCc2ccc(-c3cccc(N4CCCC4)c3)nc21)c1cnccn1 (stereo not drawn) [Compound 260] | C (EC1.5>25 μM) | 
O=C(NC1CCCc2ccc(-c3cccc(N4CCOCC4)c3)nc21)c1cnccn1 (stereo not drawn) [Compound 261] | C (EC1.5>25 μM) | 
O=C(Nc1ccnc(N2CCCC2)c1)C1CCCc2ccc(-c3cccc(C(F)(F)F)c3F)nc21 (stereo not drawn) [Compound 273] | C (EC1.5>25 μM) | 
O=C(Nc1ccnc(N2CCCC2)c1)C1CCCc2ccc(-c3cccc(N4CCOCC4)c3)nc21 (stereo not drawn) [Compound 278] | A (EC1.5<10.0 μM) | < 200
O=C(Nc1nccs1)C1CCCc2ccc(-c3cccc(C(F)(F)F)c3)nc21 (stereo not drawn) [Compound 279] | C (EC1.5>25 μM) | 
Cc1nc(NC(=O)C2CCCc3ccc(-c4cccc(C(F)(F)F)c4)nc32)sc1C (stereo not drawn) [Compound 281] | C (EC1.5>25 μM) | 
Cc1cc(NC(=O)C2CCCc3ccc(-c4cccc(C(F)(F)F)c4)nc32)sn1 (stereo not drawn) [Compound 282] | B (EC1.5 10-25 μM) | < 200
O=C(Nc1ccccn1)C1CCCc2ccc(-c3cccc(C(F)(F)F)c3)nc21 (stereo not drawn) [Compound 284] | C (EC1.5>25 μM) | 
O=C(Nc1cccnc1)C1CCCc2ccc(-c3cccc(C(F)(F)F)c3)nc21 (stereo not drawn) [Compound 285] | C (EC1.5>25 μM) | 
O=C(Nc1ccncc1)C1CCCc2ccc(-c3cccc(C(F)(F)F)c3)nc21 (stereo not drawn) [Compound 286] | C (EC1.5>25 μM) | 
O=C(NC1CCOCC1)C1CCCc2ccc(-c3cccc(C(F)(F)F)c3)nc21 (stereo not drawn) [Compound 287] | C (EC1.5>25 μM) | 
Cc1cc(NC(=O)C2CCCc3ccc(-c4cccc(C(F)(F)F)c4)nc32)no1 (stereo not drawn) [Compound 288] | C (EC1.5>25 μM) | 
O=C(Nc1cnccn1)C1CCCc2ccc(-c3cccc(C(F)(F)F)c3)nc21 (stereo not drawn) [Compound 289] | B (EC1.5 10-25 μM) | < 200
Cc1ccnc(NC(=O)C2CCCc3ccc(-c4cccc(C(F)(F)F)c4)nc32)n1 (stereo not drawn) [Compound 292] | C (EC1.5>25 μM) | 
O=C(Nc1nc(CN2CCOCC2)cs1)C1CCCc2ccc(-c3cccc(C(F)(F)F)c3)nc21 (stereo not drawn) [Compound 294] | A (EC1.5<10.0 μM) | > 200
O=C(Nc1nc2ccccc2s1)C1CCCc2ccc(-c3cccc(C(F)(F)F)c3)nc21 (stereo not drawn) [Compound 295] | C (EC1.5>25 μM) | 
